One assay deals with rat α9α10 nAChR (Rattus norvegicus, UniProt P43144+Q9JLB5). The assay is described as follows: cell-based. The conditions noted are these: for IC50: α9α10 nAChR IC50 (nM) Rat. It is filed as cell-based.
A further assay deals with human α9α10 nAChR (Homo sapiens, UniProt Q9GZZ6+Q9UGM1). The assay is described as follows: cell-based. It is filed as cell-based.

The record followed here is patent US11612661B2 (priority 2019, dated 2023).

Numbered stars: 1 amine (or outer) side, 2 acyl side, 3 side chain; on linkers, the order of the positions; unused ones are H or OH. Bridge positions count the residues as written; N and C are the ends. Square brackets hold non-standard residues; d marks the D form. Triazole bridges read from a SMILES are 1,4-linked. Peptide text beside a SMILES is read from it. * marks the point of attachment. Gly(αS-SH) = O=C([C@@H](N[*:1])S[*:3])[*:2]; Tyr(3-I) = N[C@@H](Cc1ccc(O)c(I)c1)C(=O)O; Orn(N3) = [N-]=[N+]=NCCC[C@H](N)C(=O)O; X1 = O=C(O)C[C@@H](N*)c1ccc(O)cc1; Cit = NC(=O)NCCC[C@H](N)C(=O)O; Pra = C#CC[C@H](N)C(=O)O; Sar = CNCC(=O)O

rat α9α10 nAChR, sequence (P43144 26-479 limits assumed): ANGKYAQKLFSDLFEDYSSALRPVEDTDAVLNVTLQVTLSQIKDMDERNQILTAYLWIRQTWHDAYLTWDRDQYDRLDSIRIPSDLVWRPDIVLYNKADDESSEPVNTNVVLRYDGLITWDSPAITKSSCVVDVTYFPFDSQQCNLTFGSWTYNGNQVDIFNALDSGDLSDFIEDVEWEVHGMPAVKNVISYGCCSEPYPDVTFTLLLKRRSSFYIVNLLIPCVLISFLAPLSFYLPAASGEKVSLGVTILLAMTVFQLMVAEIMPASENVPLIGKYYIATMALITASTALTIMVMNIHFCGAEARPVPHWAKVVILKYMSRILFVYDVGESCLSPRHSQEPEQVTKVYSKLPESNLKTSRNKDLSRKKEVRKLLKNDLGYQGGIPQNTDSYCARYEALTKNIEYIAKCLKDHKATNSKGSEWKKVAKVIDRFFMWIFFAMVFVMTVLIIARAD
rat α9α10 nAChR, sequence (Q9JLB5 25-447 limits assumed): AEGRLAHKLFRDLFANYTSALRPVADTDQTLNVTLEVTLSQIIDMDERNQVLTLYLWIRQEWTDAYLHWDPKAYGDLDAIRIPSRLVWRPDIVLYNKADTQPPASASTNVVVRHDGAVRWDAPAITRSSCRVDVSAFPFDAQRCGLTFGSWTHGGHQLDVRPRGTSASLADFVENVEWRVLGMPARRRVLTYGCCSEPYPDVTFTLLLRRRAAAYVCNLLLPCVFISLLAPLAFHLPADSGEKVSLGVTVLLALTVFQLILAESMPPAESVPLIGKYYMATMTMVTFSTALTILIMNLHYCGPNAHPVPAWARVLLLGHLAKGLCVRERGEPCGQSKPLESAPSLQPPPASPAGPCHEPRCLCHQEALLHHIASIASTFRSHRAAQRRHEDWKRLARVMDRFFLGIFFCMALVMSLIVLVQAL
human α9α10 nAChR, sequence (Q9UGM1 26-479 limits assumed): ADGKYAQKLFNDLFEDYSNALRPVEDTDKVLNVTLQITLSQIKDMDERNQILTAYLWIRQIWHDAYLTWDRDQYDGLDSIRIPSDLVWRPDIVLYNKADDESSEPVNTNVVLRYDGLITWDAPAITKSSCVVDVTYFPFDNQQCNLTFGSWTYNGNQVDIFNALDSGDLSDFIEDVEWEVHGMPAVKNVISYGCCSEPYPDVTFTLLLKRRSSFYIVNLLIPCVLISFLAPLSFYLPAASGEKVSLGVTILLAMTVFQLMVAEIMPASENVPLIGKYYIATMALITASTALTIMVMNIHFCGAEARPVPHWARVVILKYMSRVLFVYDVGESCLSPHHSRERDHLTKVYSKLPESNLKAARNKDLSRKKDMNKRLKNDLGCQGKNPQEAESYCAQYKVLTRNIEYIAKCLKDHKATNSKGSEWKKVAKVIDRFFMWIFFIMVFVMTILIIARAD
human α9α10 nAChR, sequence (Q9GZZ6 25-450 limits assumed): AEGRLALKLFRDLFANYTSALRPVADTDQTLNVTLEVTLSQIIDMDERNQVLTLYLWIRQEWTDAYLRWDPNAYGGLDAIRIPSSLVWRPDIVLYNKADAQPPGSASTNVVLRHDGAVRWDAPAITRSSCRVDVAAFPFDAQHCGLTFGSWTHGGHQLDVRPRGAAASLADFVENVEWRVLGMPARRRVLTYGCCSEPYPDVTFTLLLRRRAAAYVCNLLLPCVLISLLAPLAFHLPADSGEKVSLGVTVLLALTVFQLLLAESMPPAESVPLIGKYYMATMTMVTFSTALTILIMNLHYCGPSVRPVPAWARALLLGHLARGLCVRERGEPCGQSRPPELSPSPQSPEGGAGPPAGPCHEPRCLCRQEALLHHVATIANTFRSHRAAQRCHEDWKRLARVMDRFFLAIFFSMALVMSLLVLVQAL

`C[C@@H](O)[C@@H]1NC(=O)[C@@H]2Cc3cn(nn3)CCC[C@@H](C(=O)N[C@H](CC(=O)O)c3ccc(O)cc3)NC(=O)[C@H](CCC(N)=O)NC(=O)[C@H](Cc3c[nH]c4ccccc34)NC(=O)[C@H](CCCNC(N)=O)NC(=O)[C@H](CSSC[C@H](NC(=O)CN)C(=O)N2)NC(=O)[C@H](CCCNC(=N)N)NC(=O)[C@@H]2CCCN2C(=O)[C@H](CC(=O)O)NC1=O` [Iu, (R)-3-(amino)-3-(4-hydroxyphenyl)propionic acid, glycyl-L-cysteinyl-L-alanyl-L-threonyl-L-α-aspartyl-L-prolyl-L-arginyl-L-cysteinyl-N5-(aminocarbonyl)-L-ornithyl-L-tryptophyl-L-glutaminyl-L-norvalyl-cyclic (2→8)-disulfide-cyclic 3^3,12^5-(1H-1,2,3-triazole-4,1-diyl)] (H-GC[Pra]TDPRC[Cit]WQ[Orn(N3)]-X1; disulfide 2-8; triazole 3-12): the IC50 (in general, the concentration at which inhibition is half-maximal) on rat α9α10 nAChR is less than 30 nM; against human α9α10 nAChR, roughly 100 nM.

In the case of `C[C@@H](O)[C@@H]1NC(=O)[C@@H]2Cc3cn(nn3)CCC[C@@H](C(=O)N[C@@H](Cc3ccc(O)cc3)C(=O)N[C@H](Cc3ccc(O)cc3)C(=O)O)NC(=O)[C@H](CCC(N)=O)NC(=O)[C@H](Cc3c[nH]c4ccccc34)NC(=O)[C@H](CCCNC(N)=O)NC(=O)[C@H](CSSC[C@H](NC(=O)CN)C(=O)N2)NC(=O)[C@H](CCCNC(=N)N)NC(=O)[C@@H]2CCCN2C(=O)[C@H](CC(=O)O)NC1=O` [Io, D-tyrosine, glycyl-L-cysteinyl-L-alanyl-L-threonyl-L-α-aspartyl-L-prolyl-L-arginyl-L-cysteinyl-N5-(aminocarbonyl)-L-ornithyl-L-tryptophyl-L-glutaminyl-L-norvalyl-L-tyrosyl-cyclic (2→8)-disulfide-cyclic 3^3,12^5-(1H-1,2,3-triazole-4,1-diyl)] (H-GC[Pra]TDPRC[Cit]WQ[Orn(N3)]Y[dY]-OH; disulfide 2-8; triazole 3-12), the half-inhibitory concentration (IC50) was no more than 10 nM against rat α9α10 nAChR and 59 nM on human α9α10 nAChR.

As to `C[C@@H](O)[C@@H]1NC(=O)[C@@H]2Cc3cn(nn3)CCC[C@@H](C(=O)N[C@@H](Cc3ccc(O)cc3)C(=O)N(C)CC(=O)O)NC(=O)[C@H](CCC(N)=O)NC(=O)[C@H](Cc3c[nH]c4ccccc34)NC(=O)[C@H](CCCNC(N)=O)NC(=O)[C@H](CSSC[C@H](NC(=O)CN)C(=O)N2)NC(=O)[C@H](CCCNC(=N)N)NC(=O)[C@@H]2CCCN2C(=O)[C@H](CC(=O)O)NC1=O` [In, glycine, glycyl-L-cysteinyl-L-alanyl-L-threonyl-L-α-aspartyl-L-prolyl-L-arginyl-L-cysteinyl-N5-(aminocarbonyl)-L-ornithyl-L-tryptophyl-L-glutaminyl-L-norvalyl-L-tyrosyl-N-methyl-cyclic (2→8)-disulfide-cyclic 3^3,12^5-(1H-1,2,3-triazole-4,1-diyl)] (H-GC[Pra]TDPRC[Cit]WQ[Orn(N3)]Y[Sar]-OH; disulfide 2-8; triazole 3-12), the 50% inhibitory concentration (IC50) against rat α9α10 nAChR is no more than 10 nM; against human α9α10 nAChR, 37 ± 15 nM.

In the case of `C[C@@H](O)[C@@H]1NC(=O)[C@@H]2CCCn3cc(nn3)C[C@@H](C(=O)N[C@@H](Cc3ccc(O)cc3)C(N)=O)NC(=O)[C@H](CCC(N)=O)NC(=O)[C@H](Cc3ccc(O)c(I)c3)NC(=O)[C@H](CCCNC(N)=O)NC(=O)[C@H](CSSC[C@H](NC(=O)CN)C(=O)N2)NC(=O)[C@H](CCCNC(=N)N)NC(=O)[C@@H]2CCCN2C(=O)[C@H](CC(=O)O)NC1=O` [Ie, L-tyrosinamide, glycyl-L-cysteinyl-L-norvalyl-L-threonyl-L-α-aspartyl-L-prolyl-L-arginyl-L-cysteinyl-N5-(aminocarbonyl)-L-ornithyl-L-3-iodotyrosyl-L-glutaminyl-L-alanyl-cyclic (2→8)-disulfide-cyclic 3^5,12^3-(1H-1,2,3-triazole-1,4-diyl)] (H-GC[Orn(N3)]TDPRC[Cit][Tyr(3-I)]Q[Pra]Y-NH2; disulfide 2-8; triazole 3-12), the IC50 against rat α9α10 nAChR was determined as 6.6 ± 1.7 nM; against human α9α10 nAChR, 115 ± 56 nM.

On to `C[C@@H](O)[C@@H]1NC(=O)[C@@H]2Cc3cn(nn3)CCC[C@@H](C(=O)O)NC(=O)[C@H](CCC(N)=O)NC(=O)[C@H](Cc3c[nH]c4ccccc34)NC(=O)[C@H](CCCNC(N)=O)NC(=O)[C@H](CSSC[C@H](NC(=O)CN)C(=O)N2)NC(=O)[C@H](CCCNC(=N)N)NC(=O)[C@@H]2CCCN2C(=O)[C@H](CC(=O)O)NC1=O` [Iq, L-norvaline, glycyl-L-cysteinyl-L-alanyl-L-threonyl-L-α-aspartyl-L-prolyl-L-arginyl-L-cysteinyl-N5-(aminocarbonyl)-L-ornithyl-L-tryptophyl-L-glutaminyl-cyclic (2→8)-disulfide-cyclic 3^3,12^5-(1H-1,2,3-triazole-4,1-diyl)] (H-GC[Pra]TDPRC[Cit]WQ[Orn(N3)]-OH; disulfide 2-8; triazole 3-12), for which, at rat α9α10 nAChR, the “Loss in activity on the rat channel on deletion of amino acid 13 (1a vs 1q)” value is listed as “approximately 10 fold” and the 50% inhibitory concentration (IC50) was 69 ± 2 nM. On human α9α10 nAChR, the IC50 was greater than 300 nM and the “Loss of activity on the human channel on deletion of amino acid 13 (1a vs 1q)” value is recorded as “greater than 100 fold”.

As to `C[C@@H](O)[C@@H]1NC(=O)[C@@H]2CCCCNC(=O)CC[C@@H](C(=O)N[C@@H](Cc3ccc(O)cc3)C(N)=O)NC(=O)[C@H](CCC(N)=O)NC(=O)[C@H](Cc3ccc(O)c(I)c3)NC(=O)[C@H](CCCNC(N)=O)NC(=O)[C@H](CSSC[C@H](NC(=O)CN)C(=O)N2)NC(=O)[C@H](CCCNC(=N)N)NC(=O)[C@@H]2CCCN2C(=O)[C@H](CC(=O)O)NC1=O` [Ix] (H-GCKTDPRC[Cit][Tyr(3-I)]QEY-NH2; disulfide 2-8; lactam 3-12), the IC50 against rat α9α10 nAChR was determined as 21 ± 1.4 nM; against human α9α10 nAChR it was 123 ± 22 nM.

On to `C[C@@H](O)[C@@H]1NC(=O)[C@@H]2CCC(=O)NCCCC[C@@H](C(=O)N[C@@H](Cc3ccc(O)cc3)C(N)=O)NC(=O)[C@H](CCC(N)=O)NC(=O)[C@H](Cc3ccc(O)c(I)c3)NC(=O)[C@H](CCCNC(N)=O)NC(=O)[C@H](CSSC[C@H](NC(=O)CN)C(=O)N2)NC(=O)[C@H](CCCNC(=N)N)NC(=O)[C@@H]2CCCN2C(=O)[C@H](CC(=O)O)NC1=O` [Iw, L-tyrosinamide, glycyl-L-cysteinyl-L-glutamyl-L-threonyl-L-α-aspartyl-L-prolyl-L-arginyl-L-cysteinyl-N5-(aminocarbonyl)-L-ornithyl-L-3-iodotyrosyl-L-glutaminyl-L-lysyl-cyclic (2→8)-disulfide-cyclic-(3→12)-lactam] (H-GCETDPRC[Cit][Tyr(3-I)]QKY-NH2; disulfide 2-8; lactam 3-12), for which the IC50 is 36 ± 9 nM at rat α9α10 nAChR and greater than 300 nM against human α9α10 nAChR.

For `C[C@@H](O)[C@@H]1NC(=O)[C@H]2NC(=O)[C@@H](NC(=O)CN)Cc3cn(nn3)CCC[C@H](NC(=O)[C@H](CCCNC(=N)N)NC(=O)[C@@H]3CCCN3C(=O)[C@H](CC(=O)O)NC1=O)C(=O)N[C@@H](CCCNC(N)=O)C(=O)N[C@@H](Cc1ccc(O)c(I)c1)C(=O)N[C@@H](CCC(N)=O)C(=O)N[C@H](C(=O)N[C@@H](Cc1ccc(O)cc1)C(N)=O)CSS2` [Ic, L-tyrosinamide, glycyl-L-alanyl-L-cysteinyl-L-threonyl-L-α-aspartyl-L-prolyl-L-arginyl-L-norvalyl-N5-(aminocarbonyl)-L-ornithyl-L-3-iodotyrosyl-L-glutaminyl-L-cysteinyl-cyclic 2^3,8^5-(1H-1,2,3-triazole-4,1-diyl)-cyclic-(3→12)-disulfide] (H-G[Pra][Gly(αS-SH)]TDPR[Orn(N3)][Cit][Tyr(3-I)]QCY-NH2; triazole 2-8; disulfide 3-12), the IC50 against rat α9α10 nAChR is 69 ± 8.5 nM; at human α9α10 nAChR, 152 ± 71 nM.

`C[C@@H](O)[C@@H]1NC(=O)[C@@H]2Cc3cn(nn3)CCC[C@@H](C(=O)N[C@@H](Cc3ccccc3)C(=O)O)NC(=O)[C@H](CCC(N)=O)NC(=O)[C@H](Cc3c[nH]c4ccccc34)NC(=O)[C@H](CCCNC(N)=O)NC(=O)[C@H](CSSC[C@H](NC(=O)CN)C(=O)N2)NC(=O)[C@H](CCCNC(=N)N)NC(=O)[C@@H]2CCCN2C(=O)[C@H](CC(=O)O)NC1=O` [Il, L-phenylalanine, glycyl-L-cysteinyl-L-alanyl-L-threonyl-L-α-aspartyl-L-prolyl-L-arginyl-L-cysteinyl-N5-(aminocarbonyl)-L-ornithyl-L-tryptophyl-L-glutaminyl-L-norvalyl-cyclic (2→8)-disulfide-cyclic 3^3,12^5-(1H-1,2,3-triazole-4,1-diyl)] (H-GC[Pra]TDPRC[Cit]WQ[Orn(N3)]F-OH; disulfide 2-8; triazole 3-12) came in with an IC50 at human α9α10 nAChR of 11 ± 1.4 nM.

On to `C[C@@H](O)[C@@H]1NC(=O)[C@@H]2Cc3cn(nn3)CCC[C@@H](C(=O)N[C@H](CCCNC(=N)N)C(=O)O)NC(=O)[C@H](CCC(N)=O)NC(=O)[C@H](Cc3c[nH]c4ccccc34)NC(=O)[C@H](CCCNC(N)=O)NC(=O)[C@H](CSSC[C@H](NC(=O)CN)C(=O)N2)NC(=O)[C@H](CCCNC(=N)N)NC(=O)[C@@H]2CCCN2C(=O)[C@H](CC(=O)O)NC1=O` [Is, D-arginine, glycyl-L-cysteinyl-L-alanyl-L-threonyl-L-α-aspartyl-L-prolyl-L-arginyl-L-cysteinyl-N5-(aminocarbonyl)-L-ornithyl-L-tryptophyl-L-glutaminyl-L-norvalyl-cyclic (2→8)-disulfide-cyclic 3^3,12^5-(1H-1,2,3-triazole-4,1-diyl)] (H-GC[Pra]TDPRC[Cit]WQ[Orn(N3)][dR]-OH; disulfide 2-8; triazole 3-12), for which, on human α9α10 nAChR, the IC50 was determined as 59 nM. This IC50 is about 5.4-fold higher than that of the compound before.

As for `C[C@@H](O)[C@@H]1NC(=O)[C@@H]2Cc3cn(nn3)CCC[C@@H](C(=O)N[C@H](Cc3ccc(O)cc3)C(=O)O)NC(=O)[C@H](CCC(N)=O)NC(=O)[C@H](Cc3c[nH]c4ccccc34)NC(=O)[C@H](CCCNC(N)=O)NC(=O)[C@H](CSSC[C@H](NC(=O)CN)C(=O)N2)NC(=O)[C@H](CCCNC(=N)N)NC(=O)[C@@H]2CCCN2C(=O)[C@H](CC(=O)O)NC1=O` [Im, D-tyrosine, glycyl-L-cysteinyl-L-alanyl-L-threonyl-L-α-aspartyl-L-prolyl-L-arginyl-L-cysteinyl-N5-(aminocarbonyl)-L-ornithyl-L-tryptophyl-L-glutaminyl-L-norvalyl-cyclic (2→8)-disulfide-cyclic 3^3,12^5-(1H-1,2,3-triazole-4,1-diyl)] (H-GC[Pra]TDPRC[Cit]WQ[Orn(N3)][dY]-OH; disulfide 2-8; triazole 3-12), the half-inhibitory concentration (IC50) on human α9α10 nAChR stood at 50 ± 1.2 nM.
